Assay results reported in article PMC4640066 (Nature Communications, 2015).

Tested on: HeLa cells expressing EB3-EGFP (mitotic spindle)
Assay: EB3-EGFP signal tracking, mitotic (MG132 metaphase) cells
Format: cell-based, human
Conditions: 30 μM
Experimental: Figure 4 Impact of gatastatin on mitotic spindle dynamics. (a,b) γ-Tubulin function is important for normal bipolar spindle formation. (a) Scheme of the experiment in b. HeLa cells were arrested at prometaphase by treatment with 10 μM of STLC for 15 h before STLC was washed out. Progression through mitotic phases was then monitored either in the presence or absence of 30 μM of gatastatin for 2 h. (b) The mitotic stages of 20 cells per experiment from the scheme in a were analysed in three independent experiments. Error bars represent s.d. (c–e) γ-Tubulin function is important for normal bipolar spindle maintenance. (c) Scheme of the experiment in d,e. After STLC washout, HeLa cells were arrested at metaphase with bipolar spindles by treatment with 5 μM of MG132 for 2 h. 30 μM Gatastatin was added to cells and incubated for 2 h in the presence of MG132. (d) The spindle length (distance between centrosomes) of cells in scheme c was measured as described in Fig. 3g. Spindles of 20 cells per experiment were analysed. Three independent experiments were performed and one representative experiment is shown. Error bars represent s.d. Two-tailed, unpaired Student's t-test was used to obtain P value. (e) The effect of gatastatin on spindle MT dynamics was analysed using HeLa cells expressing EB3-EGFP. EB3 signals of spindle in c were monitored. […] Scale bar, 5 μm.
A HeLa ‘Kyoto' cell line stably expressing EB3-EGFP (a kind gift from Dr J. Ellenberg) was maintained in DMEM+GlutaMAX (Gibco) supplemented with 10% FBS, 2 mM L-glutamine, 100 U ml^−1 penicillin, 100 μg ml^−1 streptomycin, 1 mM sodium pyruvate and 0.5 mg ml^−1 G418. Cells were seeded into eight-well Lab-Tek chambers (Nunc, Rochester, NY) for 24-h prior imaging. For imaging, the medium was exchanged to Live Cell Imaging Solution (Molecular Probes Life Technologies) supplemented as described above and containing various concentrations of AG1 or gatastatin. Interphase cells were incubated with drugs for 15 min and mitotic cells were treated as described in Fig. 4c. Then, EB3 tracks were observed under a PerkinElmer UltraVIEW ERS Spinning Disk microscope (Software: UltraVIEW ERS Imaging Suite) equipped with a Plan-APOCHROMAT × 100/1.4 Oil DIC objective, a Confocal Scanner Unit (Yokogawa CSU 22), a Hamamatsu EM CCD camera (C9100-50) and a 488-nm Argon laser at 37 °C, and time-lapse sequences were performed for 60 s with a 400-ms interval. Automatic analysis of EB3-EGFP signal tracks was performed with ImageJ (http://imagej.nih.gov/ij/) and Matlab (Mathworks) as described.

[1] = 2 h with MG132, mitotic HeLa EB3-EGFP, mean±s.d.

## COc1cc2c(=O)c(-c3cc(OC)c4c(c3OC)OCO4)coc2cc1OCc1ccccc1 [Gatastatin, O^7-demethylbenzyl AG1]
[1]
  Track length: 0.53±0.09 μm
  Track lifetime: 1.76 ± 0.66 s
  Velocity: 11.21±1.68 μm min^−1
2 h with MG132, mitotic, from a 25-μm^2 area in the spindle
  Track numbers: 37.27±8.12
Preformed metaphase spindle (MG132), compared with control
  Reduction of the number of growing MTs: 17%
